Experimental data from patent US20240209028A1, “CNP COMPOUNDS” (priority 2022, published 2024).
Starred links: 1 amine or outer side, 2 acyl side, 3 side chain; linkers in the order of their positions; H or OH if unused. Positions of bridges follow the written chain, without caps; N, C: chain ends. Residues, ends and D or L forms follow the SMILES beside them. *: point of attachment. C18 diacid = O=C(O)CCCCCCCCCCCCCCCCC(=O)*; γGlu = O=C(O)[C@H](CCC(=O)[*:2])N[*:1]; AEEA = NCCOCCOCC(=O)O

Assay: Thioflavin T (ThT) assay: lagtime and peptide recovery
Assay type: physicochemical
Conditions: assay terminated after 45 hours; for LagTime (h) at pH 6.5: ThT assay, pH 6.5, 37° C.
From the text: The ThT assay was used to evaluate physical stability of the CNP compounds and their suitability for liquid formulation. Low physical stability of peptides may lead to amyloid fibril formation, which is observed as well-ordered, thread-like macromolecular structures in the sample eventually resulting in gel formation. This has traditionally been tested by visual inspection of the sample. However, that kind of measurement is very subjective and depending on the observer. Therefore, the application of a small molecule indicator probe is much more advantageous. Thioflavin T (ThT) is such a probe and has a distinct fluorescence signature when binding to fibrils [Naiki et al. (1989) Anal. Biochem. 177, 244-249; LeVine (1999) Methods. Enzymol. […], 274-284].
Procedure: Thioflavin T was added to the supernatant samples from Example 5 (pH 4.0 and 6.5) using an aqueous ThT stock solution to a final concentration of about 1 μM in the samples. Sample aliquots of 150 μL were placed in a 96 well microtiter plate (Packard OptiPlate™-96, white polystyrene). Usually, two to three replicas of each sample were applied to the plate. The plate was sealed and placed in a fluorescence plate reader (Fluoroskan Ascent FL) and incubated at 37° C. with orbital shaking (960 rpm; 1 mm amplitude). Fluorescence measurements were performed every 20 minutes using excitation through a 444 nm filter and measurement of emission through a 485 nm filter. Between each measurement, the plate was shaken and heated as described above and the assay was terminated after 45 hours. Fluorescence measurements for each microtiter plate well were plotted against time and the lag-time (time until an increase in ThT fluorescence was observed) was estimated.
To assess loss of dissolved peptide following 45h incubation, peptide recovery was measured as the ratio between total peak area after incubation vs. before incubation using the RP-UPLC method described below.
Measurement of LagTime and Peptide recovery % using RP-UPLC: RP-UPLC was conducted using an Acquity UPLC BEH C18 1.7 μm (2.1×30 mm) Waters column (Eluent A: 0.1% v/v % TFA in water; Eluent B: 0.1% v/v TFA in acetonitrile/water 4:1) with gradient elution (0 min: 95% A; 2 min: 20% A; 2.3 min: 20% A; 2.4 min: 95% A; 9 min: 95% A) in a flow rate of 0.9 mL/min and a column temperature of 30° C. UV-detection at 215 nm was used to assess the total peptide area.
Samples at pH 4.0 were prepared as described in Example 5 and subjected to the ThT assay as described above.
Samples at pH 6.5 were prepared as described in Example 5 and subjected to the ThT assay as described above.

SMILES | LagTime (h) at pH 6.5 [h] | LagTime (h) at pH 4.0 (ThT, 37° C., shaking) [h]
CC[C@H](C)[C@@H]1NC(=O)[C@H](CCCNC(=N)N)NC(=O)[C@H](CC(=O)O)NC(=O)[C@H](CC(C)C)NC(=O)[C@@H]2CCCN2C(=O)[C@H](CC(C)C)NC(=O)CNC(=O)[C@H](Cc2ccccc2)NC(=O)[C@@H](NC(=O)CNC(=O)[C@H](CCC(N)=O)NC(=O)[C@H](CO)NC(=O)[C@H](CC(C)C)NC(=O)CNC(=O)[C@H](CCCCN)NC(=O)[C@H](CCCCN)NC(=O)[C@H](CCC(N)=O)NC(=O)[C@H](C)NC(=O)CNC(=O)[C@H](CCCCN)NC(=O)[C@H](Cc2ccc(O)cc2)NC(=O)[C@H](CCCCN)NC(=O)[C@H](Cc2c[nH]cn2)NC(=O)[C@H](C)NC(=O)[C@H](CCC(N)=O)NC(=O)[C@@H]2CCCN2C(=O)[C@H](Cc2c[nH]cn2)NC(=O)[C@H](CCC(=O)O)NC(=O)[C@H](CCC(N)=O)NC(=O)COCCOCCNC(=O)COCCOCCNC(=O)CC[C@H](NC(=O)CC[C@H](NC(=O)CC[C@H](NC(=O)CCCCCCCCCCCCCCCCC(=O)O)C(=O)O)C(=O)O)C(=O)O)CSSC[C@@H](C(=O)O)NC(=O)CNC(=O)[C@H](CC(C)C)NC(=O)CNC(=O)[C@H](CO)NC(=O)[C@H](CC(C)C)NC(=O)[C@H](CO)NC(=O)CNC1=O [compound 1382] ({C18 diacid-γGlu-γGlu-γGlu-AEEA-AEEA}-QEHPQAHKYKGAQKKGLSQGCFGLPLDRIGSLSGLGC-OH; disulfide 21-37) | 45 | 
CC[C@H](C)[C@@H]1NC(=O)[C@H](CCCNC(=N)N)NC(=O)[C@H](CC(=O)O)NC(=O)[C@H](CC(C)C)NC(=O)[C@@H]2CCCN2C(=O)[C@H](CC(C)C)NC(=O)CNC(=O)[C@H](Cc2ccccc2)NC(=O)[C@@H](NC(=O)CNC(=O)[C@H](CO)NC(=O)[C@H](CO)NC(=O)[C@H](CC(C)C)NC(=O)CNC(=O)[C@H](CCCCN)NC(=O)[C@H](CCCCN)NC(=O)[C@H](CCC(N)=O)NC(=O)[C@H](C)NC(=O)CNC(=O)[C@H](CCCCN)NC(=O)[C@H](Cc2ccc(O)cc2)NC(=O)[C@H](CCCCN)NC(=O)[C@H](CCCNC(=N)N)NC(=O)[C@H](C)NC(=O)[C@H](CCC(N)=O)NC(=O)[C@@H]2CCCN2C(=O)[C@H](Cc2c[nH]cn2)NC(=O)[C@H](CCC(=O)O)NC(=O)[C@H](CCC(N)=O)NC(=O)CC[C@H](NC(=O)CC[C@H](NC(=O)CC[C@H](NC(=O)CC[C@H](NC(=O)CCCCCCCCCCCCCCCCC(=O)O)C(=O)O)C(=O)O)C(=O)O)C(=O)O)CSSC[C@@H](C(=O)O)NC(=O)CNC(=O)[C@H](CC(C)C)NC(=O)CNC(=O)[C@H](CO)NC(=O)[C@H](CC(C)C)NC(=O)[C@H](CO)NC(=O)CNC1=O [compound 1389] ({C18 diacid-γGlu-γGlu-γGlu-γGlu}-QEHPQARKYKGAQKKGLSSGCFGLPLDRIGSLSGLGC-OH; disulfide 21-37) |  | 45
CC[C@H](C)[C@@H]1NC(=O)[C@H](CCCNC(=N)N)NC(=O)[C@H](CC(=O)O)NC(=O)[C@H](CC(C)C)NC(=O)[C@@H]2CCCN2C(=O)[C@H](CC(C)C)NC(=O)CNC(=O)[C@H](Cc2ccccc2)NC(=O)[C@@H](NC(=O)CNC(=O)[C@H](CO)NC(=O)[C@H](CO)NC(=O)[C@H](CC(C)C)NC(=O)CNC(=O)[C@H](CCCCN)NC(=O)[C@H](CCCCN)NC(=O)[C@H](CCC(N)=O)NC(=O)[C@H](C)NC(=O)CNC(=O)[C@H](CCC(=O)O)NC(=O)[C@H](Cc2ccc(O)cc2)NC(=O)COCCOCCNC(=O)COCCOCCNC(=O)COCCOCCNC(=O)COCCOCCNC(=O)CC[C@H](NC(=O)CCCCCCCCCCCCCCCCC(=O)O)C(=O)O)CSSC[C@@H](C(=O)O)NC(=O)CNC(=O)[C@H](CC(C)C)NC(=O)CNC(=O)[C@H](CO)NC(=O)[C@H](CC(C)C)NC(=O)[C@H](CO)NC(=O)CNC1=O [compound 1392] ({C18 diacid-γGlu-AEEA-AEEA-AEEA-AEEA}-YEGAQKKGLSSGCFGLPLDRIGSLSGLGC-OH; disulfide 13-29) | 45 | 
CC[C@H](C)[C@@H]1NC(=O)[C@H](CCCNC(=N)N)NC(=O)[C@H](CC(=O)O)NC(=O)[C@H](CC(C)C)NC(=O)[C@@H]2CCCN2C(=O)[C@H](CC(C)C)NC(=O)CNC(=O)[C@H](Cc2ccccc2)NC(=O)[C@@H](NC(=O)CNC(=O)[C@H](CCC(N)=O)NC(=O)[C@H](CO)NC(=O)[C@H](CC(C)C)NC(=O)CNC(=O)[C@H](CCCCN)NC(=O)[C@H](CCCCN)NC(=O)[C@H](CCC(N)=O)NC(=O)[C@H](C)NC(=O)CNC(=O)[C@H](CCCCN)NC(=O)[C@H](Cc2ccc(O)cc2)NC(=O)[C@H](CCCCN)NC(=O)[C@H](CCCNC(=N)N)NC(=O)[C@H](C)NC(=O)[C@H](CCC(N)=O)NC(=O)[C@@H]2CCCN2C(=O)[C@H](Cc2c[nH]cn2)NC(=O)[C@H](CCC(=O)O)NC(=O)[C@H](CCC(N)=O)NC(=O)COCCOCCNC(=O)COCCOCCNC(=O)CC[C@H](NC(=O)CC[C@H](NC(=O)CC[C@H](NC(=O)CC[C@H](NC(=O)CC[C@H](NC(=O)CC[C@H](NC(=O)CCCCCCCCCCCCCCCCC(=O)O)C(=O)O)C(=O)O)C(=O)O)C(=O)O)C(=O)O)C(=O)O)CSSC[C@@H](C(=O)O)NC(=O)CNC(=O)[C@H](CC(C)C)NC(=O)CNC(=O)[C@H](CO)NC(=O)[C@H](CC(C)C)NC(=O)[C@H](CO)NC(=O)CNC1=O [compound 1402] ({C18 diacid-γGlu-γGlu-γGlu-γGlu-γGlu-γGlu-AEEA-AEEA}-QEHPQARKYKGAQKKGLSQGCFGLPLDRIGSLSGLGC-OH; disulfide 21-37) | 45 | 
CC[C@H](C)[C@@H]1NC(=O)[C@H](CCCNC(=N)N)NC(=O)[C@H](CC(=O)O)NC(=O)[C@H](CC(C)C)NC(=O)[C@@H]2CCCN2C(=O)[C@H](CC(C)C)NC(=O)CNC(=O)[C@H](Cc2ccccc2)NC(=O)[C@@H](NC(=O)CNC(=O)[C@H](CCC(N)=O)NC(=O)[C@H](CO)NC(=O)[C@H](CC(C)C)NC(=O)CNC(=O)[C@H](CCCCN)NC(=O)[C@H](CCCCN)NC(=O)[C@H](CCC(N)=O)NC(=O)[C@H](C)NC(=O)CNC(=O)[C@H](CCCCN)NC(=O)[C@H](Cc2ccc(O)cc2)NC(=O)[C@H](CCCCN)NC(=O)[C@H](CCCNC(=N)N)NC(=O)[C@H](C)NC(=O)[C@H](CCC(N)=O)NC(=O)[C@@H]2CCCN2C(=O)[C@H](Cc2c[nH]cn2)NC(=O)[C@H](CCC(=O)O)NC(=O)[C@H](CCC(N)=O)NC(=O)COCCOCCNC(=O)COCCOCCNC(=O)COCCOCCNC(=O)COCCOCCNC(=O)CC[C@H](NC(=O)CC[C@H](NC(=O)CC[C@H](NC(=O)CC[C@H](NC(=O)CC[C@H](NC(=O)CC[C@H](NC(=O)CCCCCCCCCCCCCCCCC(=O)O)C(=O)O)C(=O)O)C(=O)O)C(=O)O)C(=O)O)C(=O)O)CSSC[C@@H](C(=O)O)NC(=O)CNC(=O)[C@H](CC(C)C)NC(=O)CNC(=O)[C@H](CO)NC(=O)[C@H](CC(C)C)NC(=O)[C@H](CO)NC(=O)CNC1=O [compound 1404] ({C18 diacid-γGlu-γGlu-γGlu-γGlu-γGlu-γGlu-AEEA-AEEA-AEEA-AEEA}-QEHPQARKYKGAQKKGLSQGCFGLPLDRIGSLSGLGC-OH; disulfide 21-37) | 45 | 
